From BindingDB's records for patent US20250002452 (Icagen, 2025)

Target: Potassium voltage-gated channel subfamily KQT member 2 (Homo sapiens, UniProt O43526)
Experiment: SyncroPatch 384 (Nanion) High Throughput Electrophysiology Assay
Excerpt: Solutions were of the following composition:Earle's balanced salt solution (in mM): 135 NaCl, 5.4 KCl, 5 Glucose, 2 CaCl2), 1 MgCl2, 5 HEPES, pH 7.4. Seal enhancer solution (in mM): 90 NaCl, 3 KCl, 35 CaCl2), 10 MgCl2, 10 HEPES, pH 7.4. Extracellular recording solution (in mM): 71 NaCl, 70 NMDG, 13 KCl, 5 Glucose, 2 CaCl2), 1 MgCl2, 10 HEPES, pH 7.4. Intracellular recording solution (in mM): 130 KF, 20 KCl, 4 EGTA, 10 HEPES, 2 EDTA, 0.01 Escin, pH 7.2.

Potassium voltage-gated channel subfamily KQT member 2, sequence (O43526 whole entry): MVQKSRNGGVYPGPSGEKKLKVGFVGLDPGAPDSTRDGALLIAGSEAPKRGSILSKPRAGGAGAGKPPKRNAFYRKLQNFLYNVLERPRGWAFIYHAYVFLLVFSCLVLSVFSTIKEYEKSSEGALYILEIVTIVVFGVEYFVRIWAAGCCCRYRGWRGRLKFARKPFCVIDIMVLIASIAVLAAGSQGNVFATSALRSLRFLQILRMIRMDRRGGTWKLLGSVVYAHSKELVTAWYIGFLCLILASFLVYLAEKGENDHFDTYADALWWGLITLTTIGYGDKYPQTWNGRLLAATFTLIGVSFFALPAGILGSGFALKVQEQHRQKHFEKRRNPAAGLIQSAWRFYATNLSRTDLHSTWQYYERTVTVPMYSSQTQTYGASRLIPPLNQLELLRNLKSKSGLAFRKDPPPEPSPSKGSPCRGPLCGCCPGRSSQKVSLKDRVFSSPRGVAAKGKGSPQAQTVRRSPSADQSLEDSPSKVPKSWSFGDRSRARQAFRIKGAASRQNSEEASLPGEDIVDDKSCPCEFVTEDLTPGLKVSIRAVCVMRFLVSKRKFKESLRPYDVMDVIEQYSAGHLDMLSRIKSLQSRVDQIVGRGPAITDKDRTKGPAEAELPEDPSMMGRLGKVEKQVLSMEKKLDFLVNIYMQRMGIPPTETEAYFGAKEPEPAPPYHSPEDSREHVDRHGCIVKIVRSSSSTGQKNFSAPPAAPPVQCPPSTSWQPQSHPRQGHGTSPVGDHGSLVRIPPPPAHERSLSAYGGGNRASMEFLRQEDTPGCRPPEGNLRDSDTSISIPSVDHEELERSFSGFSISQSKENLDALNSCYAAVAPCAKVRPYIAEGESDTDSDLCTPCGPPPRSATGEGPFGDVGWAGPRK

EC50: 180 nM
SMILES: CC(NC(=O)NC12CC(F)(C1)C2)c1cccc(OC(F)F)c1 (stereo unspecified) [US20250002452, Example 38]
